Measured values taken from patent publication US20070249670A1, “Glycogen Phosphorylase Inhibitor Compounds and Pharmaceutical Compositions Thereof” (SMITHKLINE BEECHAM CORPORATION, priority 2004, published 2007).

Target: T1, human liver glycogen phosphorylase a (HLGPa) (Homo sapiens, UniProt P06737)
T1 construct: creating a full-length cDNA fused at the 5′ end to codons for methionine-glycine-alanine-histidine; 6xHis tag (leader Met-Gly-Ala-His6-Gly-Gly) (N); made in house; host or cells: E. coli (bacterial expression plasmid pTXK1007LTev)
T1 sequence (P06737 2-847 limits assumed): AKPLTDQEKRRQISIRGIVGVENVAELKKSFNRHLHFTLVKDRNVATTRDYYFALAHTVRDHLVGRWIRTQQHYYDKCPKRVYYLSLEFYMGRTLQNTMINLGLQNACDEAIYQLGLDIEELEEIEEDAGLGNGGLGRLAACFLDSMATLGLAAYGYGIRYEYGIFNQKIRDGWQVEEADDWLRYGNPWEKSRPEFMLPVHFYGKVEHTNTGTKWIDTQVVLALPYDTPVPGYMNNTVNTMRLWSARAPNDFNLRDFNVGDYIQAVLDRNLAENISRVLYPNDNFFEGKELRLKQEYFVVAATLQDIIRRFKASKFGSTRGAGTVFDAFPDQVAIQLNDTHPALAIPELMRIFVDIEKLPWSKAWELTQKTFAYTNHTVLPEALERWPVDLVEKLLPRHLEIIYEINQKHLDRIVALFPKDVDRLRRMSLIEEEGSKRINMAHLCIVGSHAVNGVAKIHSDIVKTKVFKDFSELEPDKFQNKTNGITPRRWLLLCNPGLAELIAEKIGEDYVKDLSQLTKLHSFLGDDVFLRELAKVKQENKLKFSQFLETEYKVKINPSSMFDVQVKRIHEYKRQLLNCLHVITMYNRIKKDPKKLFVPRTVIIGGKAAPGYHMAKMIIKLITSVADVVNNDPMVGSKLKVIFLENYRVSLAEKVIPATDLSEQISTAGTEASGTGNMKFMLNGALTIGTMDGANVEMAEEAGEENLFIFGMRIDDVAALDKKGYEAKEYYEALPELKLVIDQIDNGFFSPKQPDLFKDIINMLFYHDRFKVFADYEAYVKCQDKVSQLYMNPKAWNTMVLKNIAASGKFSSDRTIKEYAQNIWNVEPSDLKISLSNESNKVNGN
Test: Human liver glycogen phosphorylase a enzymatic activity assay (coupled, fluorescent resorufin readout, with and without 10 mM glucose)
Format: biochemical
Details: human liver glycogen phosphorylase a enzymatic activity assay

| IC50 [µM] | SMILES |
| --- | --- |
| 5.82 | Cc1cccc(Cl)c1NC(=O)Nc1cc2ccccc2cc1C(=O)N[C@H](Cc1ccccc1F)C(=O)O [Example 124, N-[3-({[(2-chloro-6-methylphenyl)amino]carbonyl}amino)-2-naphthoyl]-2-fluoro-D-phenylalanine] |
| 28.6 | Cc1cccc(Cl)c1NC(=O)Nc1cc(Cl)ccc1C(=O)N[C@@H](CC1CCCCC1)C(=O)O [Example 125, N-[4-chloro-2-({[(2-chloro-6-methylphenyl)amino]carbonyl}amino)benzoyl]-3-cyclohexyl-L-alanine] |
| 13.9 | CC[C@H](C)[C@H](NC(=O)c1c(NC(=O)Nc2c(C)cccc2C)sc2c1CCCC2)C(=O)O [Example 126, N-{[2-({[(2,6-dimethylphenyl)amino]carbonyl}amino)-4,5,6,7-tetrahydro-1-benzothien-3-yl]carbonyl}-L-isoleucine] |
| 18.2 | CC[C@H](C)[C@H](NC(=O)c1c(NC(=O)Nc2c(C)cc(C)cc2C)sc2c1CCCC2)C(=O)O [Example 127, N-[(2-{[(mesitylamino)carbonyl]amino}-4,5,6,7-tetrahydro-1-benzothien-3-yl)carbonyl]-L-isoleucine] |
| 14.8 | CC[C@H](C)[C@H](NC(=O)c1c(NC(=O)Nc2c(C)cccc2Cl)sc2c1CCCC2)C(=O)O [Example 128, N-{[2-({[(2-chloro-6-methylphenyl)amino]carbonyl}amino)-4,5,6,7-tetrahydro-1-benzothien-3-yl]carbonyl}-L-isoleucine] |
| 7.97 | CC[C@H](C)[C@H](NC(=O)c1c(NC(=O)Nc2c(Cl)cccc2Cl)sc2c1CCCC2)C(=O)O [Example 129, N-{[2-({[(2,6-dichlorophenyl)amino]carbonyl}amino)-4,5,6,7-tetrahydro-1-benzothien-3-yl]carbonyl}-L-isoleucine] |
| 18 | Cc1cccc(Cl)c1NC(=O)Nc1sc2c(c1C(=O)N[C@@H](CC(C)C)C(=O)O)CCCC2 [Example 130, N-{[2-({[(2-chloro-6-methylphenyl)amino]carbonyl}amino)-4,5,6,7-tetrahydro-1-benzothien-3-yl]carbonyl}-L-leucine] |
| 9.96 | CC(C)C[C@H](NC(=O)c1c(NC(=O)Nc2c(Cl)cccc2Cl)sc2c1CCCC2)C(=O)O [Example 131, N-{[2-({[(2,6-dichlorophenyl)amino]carbonyl}amino)-4,5,6,7-tetrahydro-1-benzothien-3-yl]carbonyl}-L-leucine] |
| 5.25 | Cc1cccc(C)c1NC(=O)Nc1sc2c(c1C(=O)N[C@@H](CC(=O)O)C(=O)O)CCCC2 [Example 132, N-{[2-({[(2,6-dimethylphenyl)amino]carbonyl}amino)-4,5,6,7-tetrahydro-1-benzothien-3-yl]carbonyl}-L-aspartic acid] |
| 2.38 | Cc1cc(C)c(NC(=O)Nc2sc3c(c2C(=O)N[C@@H](CC(=O)O)C(=O)O)CCCC3)c(C)c1 [Example 133, N-[(2-{[(mesitylamino)carbonyl]amino}-4,5,6,7-tetrahydro-1-benzothien-3-yl)carbonyl]-L-aspartic acid] |
| 3.66 | Cc1cccc(Cl)c1NC(=O)Nc1sc2c(c1C(=O)N[C@@H](CC(=O)O)C(=O)O)CCCC2 [Example 134, N-{[2-({[(2-chloro-6-methylphenyl)amino]carbonyl}amino)-4,5,6,7-tetrahydro-1-benzothien-3-yl]carbonyl}-L-aspartic acid] |
| 17.9 | Cc1cccc(C(C)C)c1NC(=O)Nc1sc2c(c1C(=O)N[C@@H](CC(=O)O)C(=O)O)CCCC2 [Example 135, N-{[2-({[(2-isopropyl-6-methylphenyl)amino]carbonyl}amino)-4,5,6,7-tetrahydro-1-benzothien-3-yl]carbonyl}-L-aspartic acid] |
| 4.58 | CCc1cccc(CC)c1NC(=O)Nc1sc2c(c1C(=O)N[C@@H](CC(=O)O)C(=O)O)CCCC2 [Example 136, N-{[2-({[(2,6-diethylphenyl)amino]carbonyl}amino)-4,5,6,7-tetrahydro-1-benzothien-3-yl]carbonyl}-L-aspartic acid] |
| 4.15 | O=C(O)C[C@H](NC(=O)c1c(NC(=O)Nc2c(Cl)cccc2Cl)sc2c1CCCC2)C(=O)O [Example 137, N-{[2-({[(2,6-dichlorophenyl)amino]carbonyl}amino)-4,5,6,7-tetrahydro-1-benzothien-3-yl]carbonyl}-L-aspartic acid] |
| 5.56 | Cc1cccc(C)c1NC(=O)Nc1sc2c(c1C(=O)N[C@H](C(=O)O)C1CCCCC1)CCCC2 [Example 138, (2S)-cyclohexyl({[2-({[(2,6-dimethylphenyl)amino]carbonyl}amino)-4,5,6,7-tetrahydro-1-benzothien-3-yl]carbonyl}amino)acetic acid] |
| 3.26 | Cc1cccc(Cl)c1NC(=O)Nc1sc2c(c1C(=O)N[C@H](C(=O)O)C1CCCCC1)CCCC2 [Example 139, (2S)-({[2-({[(2-chloro-6-methylphenyl)amino]carbonyl}amino)-4,5,6,7-tetrahydro-1-benzothien-3-yl]carbonyl}amino)(cyclohexyl)acetic acid] |
| 5.5 | O=C(Nc1sc2c(c1C(=O)N[C@H](C(=O)O)C1CCCCC1)CCCC2)Nc1c(Cl)cccc1Cl [Example 140, (2S)-cyclohexyl({[2-({[(2,6-dichlorophenyl)amino]carbonyl}amino)-4,5,6,7-tetrahydro-1-benzothien-3-yl]carbonyl}amino)acetic acid] |
| 8.71 | Cc1ccccc1NC(=O)Nc1sc2ccccc2c1C(=O)N[C@H](C(=O)O)C1CCCCC1 [Example 141, (2S)-cyclohexyl({[2-({[(2-methylphenyl)amino]carbonyl}amino)-1-benzothien-3-yl]carbonyl}amino)acetic acid] |
| 1.51 | Cc1cccc(Cl)c1NC(=O)Nc1sc2ccccc2c1C(=O)N[C@H](C(=O)O)C1CCCCC1 [Example 142, (2S)-({[2-({[(2-chloro-6-methylphenyl)amino]carbonyl}amino)-1-benzothien-3-yl]carbonyl}amino)(cyclohexyl)acetic acid] |
| 30.3 | Cc1ccccc1NC(=O)Nc1cc2ccccc2cc1C(=O)N[C@H](C(=O)O)C1CCCCC1 [Example 143, (2S)-cyclohexyl{[3-({[(2-methylphenyl)amino]carbonyl}amino)-2-naphthoyl]amino}acetic acid] |
| 16.8 | Cc1ccccc1NC(=O)Nc1cc2ccccc2cc1C(=O)N[C@@H](CC1CCCCC1)C(=O)O [Example 144, 3-cyclohexyl-N-{[3-({[(2-methylphenyl)amino]carbonyl}amino)-2-naphthalenyl]carbonyl}-L-alanine] |
| 0.59 | Cc1cccc(C)c1NC(=O)Nc1cc2ccccc2cc1C(=O)N[C@@H](CC1CCCCC1)C(=O)O [Example 145, 3-cyclohexyl-N-{[3-({[(2,6-dimethylphenyl)amino]carbonyl}amino)-2-naphthalenyl]carbonyl}-L-alanine] |
| 0.54 | O=C(Nc1cc2ccccc2cc1C(=O)N[C@@H](CC1CCCCC1)C(=O)O)Nc1c(Cl)cccc1Cl [Example 146, 3-cyclohexyl-N-{[3-({[(2,6-dichlorophenyl)amino]carbonyl}amino)-2-naphthalenyl]carbonyl}-L-alanine] |
| 29.1 | Cc1noc(C)c1NC(=O)Nc1cc2ccccc2cc1C(=O)N[C@@H](CC(=O)O)C(=O)O [Example 147, N-{[3-({[(3,5-dimethyl-4-isoxazolyl)amino]carbonyl}amino)-2-naphthalenyl]carbonyl}-L-aspartic acid] |
